The subject of one series is BDL rats. As to the kind of experiment: Direct portal pressure measurement in bile duct ligated (BDL) rats. The class given is in vivo, rat. The source says: (§1) These experiments utilised an established animal model of cirrhosis, the bile duct ligated (BDL) rat. BDL rats may be generated by methods known in the art. For example, male Sprague-Dawley rats (200-250 g) may be used for this procedure. Following anaesthetisation, a mid-line laparotamy may be performed, the bile duct exposed, triply ligated with 4.0 silk suture, and severed between the second and third ligature. The wound is then closed in layers with absorbable suture, and the animal allowed to recover in a quiet room before being returned to the animal storage facility.
Three groups of rats were used in these experiments, BDL rats treated with vehicle, BDL rats treated with the anti-TNF monoclonal antibody infliximab, and sham treated rats.
Four weeks after BDL or sham surgery in Sprague-Dawley rats (n=14), BDL rats were gavaged with 5 mg/kg of the FXR agonist INT-747 (6-ethyl chenodeoxycholic acid, Intercept Pharmaceuticals Inc.) in vehicle (corn oil) for 5 days or with vehicle alone.
(§2) After 5 days of treatment rats underwent direct portal pressure assessment and were then sacrificed, and plasma and liver tissue collected for analysis. eNOS activity was determined radiometrically by the conversion of labelled radioactive arginine to citrulline. Protein expression for eNOS, iNOS, DDAH-1, and DDAH-2 were measured by standard Western Blotting techniques. Liver biopsies were evaluated for histopathology with H+E, Van Giesen and reticulin stains.
This method, termed ‘hydrodynamic gene therapy’, was used to determine the effect of transduction of DDAH-1 in BDL rats on portal pressure.
A plasmid containing human DDAH-1 cDNA was injected via a branch of the jugular vein into BDL or sham rodents produced as above. A control plasmid containing GFP was used as a control for the intervention in BDL animals. The animals underwent direct portal pressure measurement at 48 hours post intervention and plasma and tissue was collected for analysis of liver DDAH-1 mRNA (rtPCR) and protein expression (western blotting), as well as routine histology and biochemistry.

Another series relates to eNOS. In words: Hepatic eNOS activity (conversion of labelled arginine to 14C-citrulline) in BDL rats. As to conditions: BDL rats + infliximab vs BDL vehicle and sham. The class given is in vivo, rat. On the procedure:
FIG. 1 reports on the 14C-citrulline counts per minute per milligram of protein. This is a measure of eNOS activity. Experiments were carried out in bile-duct ligated (BDL) or sham treated rats. The bile duct ligated rats were treated with either infliximab (BDL+infliximab) or a vehicle (BDL).
as §1, §2

In another series the test system is ADMA. As to the kind of experiment: Liver tissue ADMA concentration in BDL rats. The class given is in vivo, rat. As to conditions: BDL rats + infliximab vs BDL vehicle.
Text: as §1
ADMA, SDMA and arginine were measured using fragmentation specific stable isotope dilution electrospray tandem mass spectrometry. In brief, samples de-proteinized with deuterated ADMA, SDMA and arginine, were chromatographed (acetonitrile:water, 1:1, with 0.025% formic acid) on a Teicoplanin guard column 10 mm×2.1 mm ID (Chirobiotic T, ASTEC Ltd, Congleton, UK), and analysed using a SCIEX API4000 (Applied Biosystems, Warrington, UK) in positive ion multiple reaction monitoring mode.

In the next series the test system is DDAH-I. As to the kind of experiment: Hepatic DDAH-I protein expression in BDL rats. Particulars: BDL rats + infliximab vs BDL vehicle and sham. The class given is in vivo, rat.
Text: as §1
Extracts containing equal amounts of protein were denatured and separated on 4-12% NuPAGE Bis-Tris Gels and blotted on to PVDF membranes (Invitrogen, UK). […] The bands were visualized using an enhanced ECL detection kit and quantified by densitometry. Loading accuracy was evaluated via membrane rehybridization with antibodies against mouse and rabbit anti-α tubulin (1:1000; upstate and Cell Signaling Technology, respectively).
After 5 days of treatment rats underwent direct portal pressure assessment and were then sacrificed, and plasma and liver tissue collected for analysis. eNOS activity was determined radiometrically by the conversion of labelled radioactive arginine to citrulline. Protein expression for eNOS, iNOS, DDAH-1, and DDAH-2 were measured by standard Western Blotting techniques. […]

Series [1] relates to patients with acute alcoholic hepatitis. As to conditions: systemic infliximab in association with prednisolone; cited from earlier work.

“Also recorded” adds a separate entry of the source.

In the case of `CC[C@H]1[C@@H](O)[C@@H]2[C@H](CC[C@]3(C)[C@@H]([C@H](C)CCC(=O)O)CC[C@@H]23)[C@@]2(C)CC[C@@H](O)C[C@@H]12` [INT-747, 6-ethyl chenodeoxycholic acid], the “reduction in portal pressure” value in the series with BDL rats (BDL rats, INT-747 5 mg/kg gavage for 5 days, compared to BDL+vehicle, p<0.01) was 30%.
Turning to “infliximab: anti-TNF monoclonal antibody infliximab”, in the series with BDL rats (BDL cirrhotic rats after infliximab, BDL 14±0.7, sham 5.5±0.3 mmHg), the portal pressure was found to be 9.5±0.6 mmHg. Also, the “reduction in portal pressure” value in the series on BDL rats (BDL rats + infliximab compared with BDL rats (vehicle / iso-volumetric saline)) was “greater than 33%”; with BDL rats (BDL rats + infliximab compared with BDL rats (vehicle / iso-volumetric saline), listed as Infliximab), “more than 30%”. In addition, in the series on eNOS, the “eNOS activity (14C-citrulline counts per minute per milligram of protein)” value is listed as “restores eNOS activity towards similar levels to those seen in the sham animals; also recorded: Increased”. Moreover, the “ADMA levels in liver tissue” value in the series on ADMA is “substantially reduced; also recorded: reduction”. Also, the “DDAH-I expression in liver” value with DDAH-I is reported as “restored towards sham levels; also recorded: significant increase”; in the series with DDAH-I (listed as Infliximab) it was “restored towards sham levels”. The severe infections result in series [1] was “high level of severe infections”.
